Laboratory results: ChEMBL document CHEMBL4715790, “An Unusual Binding Model of the Methyl 9-Anilinothiazolo[5,4-f] quinazoline-2-carbimidates (EHT 1610 and EHT 5372) Confers High Selectivity for Dual-Specificity Tyrosine Phosphorylation-Regulated Kinases” (J Med Chem, 2016)

Tests used:
[1] = target: T1, Glycogen synthase kinase-3 beta (Homo sapiens, UniProt P49841); experiment: Inhibition of GSK3B (unknown origin)
Target sequence in this assay (P49841 whole entry): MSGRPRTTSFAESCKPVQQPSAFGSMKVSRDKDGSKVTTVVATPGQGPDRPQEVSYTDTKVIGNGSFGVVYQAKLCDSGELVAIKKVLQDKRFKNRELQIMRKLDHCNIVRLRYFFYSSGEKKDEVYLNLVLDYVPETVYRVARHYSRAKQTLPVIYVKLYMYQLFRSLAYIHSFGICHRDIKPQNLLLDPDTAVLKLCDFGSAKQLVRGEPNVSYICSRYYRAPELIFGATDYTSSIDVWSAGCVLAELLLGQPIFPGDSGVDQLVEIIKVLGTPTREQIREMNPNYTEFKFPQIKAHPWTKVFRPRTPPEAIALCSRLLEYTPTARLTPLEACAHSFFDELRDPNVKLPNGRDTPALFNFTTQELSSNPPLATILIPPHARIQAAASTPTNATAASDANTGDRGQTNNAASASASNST

[2] = target: Dual specificity protein kinase CLK2 (Homo sapiens, UniProt P49760); experiment: Inhibition of CLK2 (unknown origin)
[3] = target: T2, Dual specificity tyrosine-phosphorylation-regulated kinase 2 (Homo sapiens) (UniProt Q92630); experiment: Binding affinity to DYRK2 (unknown origin) assessed as change in melting temperature of protein at 10 uM by Sypro-orange dye based DSF assay
T2 sequence (whole entry): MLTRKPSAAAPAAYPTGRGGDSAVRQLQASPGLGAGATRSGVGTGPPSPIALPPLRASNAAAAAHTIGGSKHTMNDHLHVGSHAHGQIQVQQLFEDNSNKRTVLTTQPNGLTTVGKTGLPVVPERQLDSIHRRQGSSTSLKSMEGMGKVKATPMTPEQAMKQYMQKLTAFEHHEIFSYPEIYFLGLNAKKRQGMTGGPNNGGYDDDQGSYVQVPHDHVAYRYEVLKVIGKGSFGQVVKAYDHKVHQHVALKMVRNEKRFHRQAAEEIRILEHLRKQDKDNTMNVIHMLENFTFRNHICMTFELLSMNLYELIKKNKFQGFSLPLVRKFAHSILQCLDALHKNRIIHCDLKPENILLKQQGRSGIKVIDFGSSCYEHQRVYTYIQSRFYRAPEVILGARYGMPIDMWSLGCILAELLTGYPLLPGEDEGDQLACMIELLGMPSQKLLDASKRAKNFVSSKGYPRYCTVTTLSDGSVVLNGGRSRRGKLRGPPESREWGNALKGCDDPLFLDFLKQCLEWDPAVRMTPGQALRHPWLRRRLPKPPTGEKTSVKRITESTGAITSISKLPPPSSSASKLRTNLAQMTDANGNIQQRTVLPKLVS

[4] = target: T3, Dual specificity protein kinase CLK1 (Homo sapiens, UniProt P49759); experiment: Inhibition of CLK1 (unknown origin)
Target sequence in this assay (P49759 whole entry): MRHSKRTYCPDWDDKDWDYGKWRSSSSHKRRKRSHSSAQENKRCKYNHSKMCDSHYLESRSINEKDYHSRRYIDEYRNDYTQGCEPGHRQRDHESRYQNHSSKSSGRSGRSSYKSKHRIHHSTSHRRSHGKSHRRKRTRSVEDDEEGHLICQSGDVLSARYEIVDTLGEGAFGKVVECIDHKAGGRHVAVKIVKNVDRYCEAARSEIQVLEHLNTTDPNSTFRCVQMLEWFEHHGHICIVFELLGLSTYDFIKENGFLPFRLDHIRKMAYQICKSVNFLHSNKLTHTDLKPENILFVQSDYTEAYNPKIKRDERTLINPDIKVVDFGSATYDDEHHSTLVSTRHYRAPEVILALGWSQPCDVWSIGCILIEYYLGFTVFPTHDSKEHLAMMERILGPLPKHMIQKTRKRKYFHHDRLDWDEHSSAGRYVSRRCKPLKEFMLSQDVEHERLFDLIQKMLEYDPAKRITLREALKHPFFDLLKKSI

[5] = target: Glycogen synthase kinase-3 alpha (Homo sapiens, UniProt P49840); experiment: Inhibition of GSK3A (unknown origin)
[6] = target: T4, Dual specificity tyrosine-phosphorylation-regulated kinase 2 (Homo sapiens, UniProt Q92630); experiment: Inhibition of DYRK2 (unknown origin)
T4 sequence (Q92630 whole entry): T2 sequence (whole entry)

[7] = target: Dual specificity protein kinase CLK4 (Homo sapiens, UniProt Q9HAZ1); experiment: Inhibition of CLK4 (unknown origin)
[8] = target: T3, Dual specificity protein kinase CLK1; experiment: Binding affinity to CLK1 (unknown origin) assessed as change in melting temperature of protein at 10 uM by Sypro-orange dye based DSF assay
Target sequence in this assay (P49759 whole entry, looked up): as the sequence (P49759 whole entry) above

[9] = target: Dual specificity protein kinase CLK3 (Homo sapiens, UniProt P49761); experiment: Inhibition of CLK3 (unknown origin)
[10] = target: Dual specificity tyrosine-phosphorylation-regulated kinase 1A (Homo sapiens) (UniProt Q13627); experiment: Binding affinity to 6x-His-tagged DYRK1A (unknown origin) assessed as change in melting temperature of protein at 10 uM by Sypro-orange dye based DSF assay
[11] = target: T5, Dual specificity tyrosine-phosphorylation-regulated kinase 3 (Homo sapiens, UniProt O43781); experiment: Inhibition of DYRK3 (unknown origin)
T5 sequence (O43781 whole entry): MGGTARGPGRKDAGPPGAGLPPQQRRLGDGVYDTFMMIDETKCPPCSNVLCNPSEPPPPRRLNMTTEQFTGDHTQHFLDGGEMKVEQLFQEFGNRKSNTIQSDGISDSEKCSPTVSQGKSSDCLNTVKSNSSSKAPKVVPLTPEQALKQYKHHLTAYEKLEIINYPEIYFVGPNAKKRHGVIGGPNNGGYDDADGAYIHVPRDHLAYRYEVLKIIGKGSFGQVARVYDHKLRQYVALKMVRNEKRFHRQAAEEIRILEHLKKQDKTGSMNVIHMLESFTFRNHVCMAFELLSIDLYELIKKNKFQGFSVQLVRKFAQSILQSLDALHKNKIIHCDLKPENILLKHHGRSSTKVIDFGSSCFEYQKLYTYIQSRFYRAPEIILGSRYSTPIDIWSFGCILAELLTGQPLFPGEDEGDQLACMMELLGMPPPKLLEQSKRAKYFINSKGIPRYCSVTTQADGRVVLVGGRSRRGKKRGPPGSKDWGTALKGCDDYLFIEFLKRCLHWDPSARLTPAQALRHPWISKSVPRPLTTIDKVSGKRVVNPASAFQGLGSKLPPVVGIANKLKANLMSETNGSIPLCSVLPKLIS

[12] = target: T1, Glycogen synthase kinase-3 beta; experiment: Binding affinity to GSK3B (unknown origin) assessed as change in melting temperature of protein at 10 uM by Sypro-orange dye based DSF assay
Target sequence in this assay (P49841 whole entry, looked up): as the sequence (P49841 whole entry) above

[13] = target: T6, Dual specificity tyrosine-phosphorylation-regulated kinase 4 (Homo sapiens, UniProt Q9NR20); experiment: Inhibition of DYRK4 (unknown origin)
T6 sequence (Q9NR20 whole entry): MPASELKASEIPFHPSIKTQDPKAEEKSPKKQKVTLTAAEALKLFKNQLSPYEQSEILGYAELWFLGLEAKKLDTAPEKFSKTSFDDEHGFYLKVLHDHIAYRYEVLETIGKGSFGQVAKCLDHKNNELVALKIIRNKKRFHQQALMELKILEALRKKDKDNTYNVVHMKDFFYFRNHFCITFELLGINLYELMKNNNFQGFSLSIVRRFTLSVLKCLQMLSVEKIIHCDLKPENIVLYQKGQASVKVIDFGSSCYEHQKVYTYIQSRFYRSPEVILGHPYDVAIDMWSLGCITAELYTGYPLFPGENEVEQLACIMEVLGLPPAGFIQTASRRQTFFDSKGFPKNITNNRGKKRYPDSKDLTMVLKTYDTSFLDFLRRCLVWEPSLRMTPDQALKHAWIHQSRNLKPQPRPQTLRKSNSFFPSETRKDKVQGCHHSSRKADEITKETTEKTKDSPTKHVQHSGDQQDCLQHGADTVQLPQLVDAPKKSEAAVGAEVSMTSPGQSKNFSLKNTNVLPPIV

Dual specificity protein kinase CLK3, sequence (P49761 whole entry): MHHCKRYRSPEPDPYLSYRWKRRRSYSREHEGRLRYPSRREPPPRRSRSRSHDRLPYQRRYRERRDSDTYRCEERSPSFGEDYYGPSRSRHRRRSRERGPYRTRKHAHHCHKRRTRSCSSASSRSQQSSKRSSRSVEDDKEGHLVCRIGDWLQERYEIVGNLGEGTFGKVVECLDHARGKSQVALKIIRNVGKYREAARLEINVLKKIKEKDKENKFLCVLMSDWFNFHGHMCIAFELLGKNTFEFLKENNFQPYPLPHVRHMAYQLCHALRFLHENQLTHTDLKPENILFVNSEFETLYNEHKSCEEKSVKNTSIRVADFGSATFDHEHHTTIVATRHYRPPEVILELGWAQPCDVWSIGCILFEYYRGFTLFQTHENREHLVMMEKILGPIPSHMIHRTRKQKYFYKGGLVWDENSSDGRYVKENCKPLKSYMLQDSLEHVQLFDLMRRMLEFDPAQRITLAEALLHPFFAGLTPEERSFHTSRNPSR
Dual specificity protein kinase CLK4, sequence (Q9HAZ1 whole entry): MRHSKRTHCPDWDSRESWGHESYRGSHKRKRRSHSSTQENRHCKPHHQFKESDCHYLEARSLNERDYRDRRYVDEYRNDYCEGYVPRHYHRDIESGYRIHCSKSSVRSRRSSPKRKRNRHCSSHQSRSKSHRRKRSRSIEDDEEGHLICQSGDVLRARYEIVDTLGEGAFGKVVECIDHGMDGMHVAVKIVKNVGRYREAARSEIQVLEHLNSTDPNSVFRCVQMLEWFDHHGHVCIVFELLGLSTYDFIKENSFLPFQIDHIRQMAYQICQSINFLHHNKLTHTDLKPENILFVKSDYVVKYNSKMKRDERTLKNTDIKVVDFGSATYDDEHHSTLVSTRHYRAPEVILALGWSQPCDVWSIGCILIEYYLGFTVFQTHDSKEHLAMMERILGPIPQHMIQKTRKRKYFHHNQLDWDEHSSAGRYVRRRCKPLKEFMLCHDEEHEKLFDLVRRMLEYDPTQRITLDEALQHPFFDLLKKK
Glycogen synthase kinase-3 alpha, sequence (P49840 whole entry): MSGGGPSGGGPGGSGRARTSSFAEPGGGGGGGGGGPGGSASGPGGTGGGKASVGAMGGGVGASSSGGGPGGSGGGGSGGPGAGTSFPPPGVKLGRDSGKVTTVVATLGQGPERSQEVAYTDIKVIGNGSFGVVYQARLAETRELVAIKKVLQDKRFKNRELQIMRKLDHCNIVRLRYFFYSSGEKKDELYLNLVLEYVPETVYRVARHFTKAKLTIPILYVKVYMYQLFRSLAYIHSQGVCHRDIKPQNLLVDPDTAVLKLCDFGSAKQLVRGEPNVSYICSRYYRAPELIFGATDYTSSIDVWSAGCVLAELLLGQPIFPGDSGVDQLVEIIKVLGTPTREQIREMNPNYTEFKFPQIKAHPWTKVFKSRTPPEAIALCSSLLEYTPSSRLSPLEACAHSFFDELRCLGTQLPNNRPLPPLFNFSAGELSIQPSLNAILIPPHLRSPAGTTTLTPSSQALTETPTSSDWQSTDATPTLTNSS
Dual specificity protein kinase CLK2, sequence (P49760 whole entry): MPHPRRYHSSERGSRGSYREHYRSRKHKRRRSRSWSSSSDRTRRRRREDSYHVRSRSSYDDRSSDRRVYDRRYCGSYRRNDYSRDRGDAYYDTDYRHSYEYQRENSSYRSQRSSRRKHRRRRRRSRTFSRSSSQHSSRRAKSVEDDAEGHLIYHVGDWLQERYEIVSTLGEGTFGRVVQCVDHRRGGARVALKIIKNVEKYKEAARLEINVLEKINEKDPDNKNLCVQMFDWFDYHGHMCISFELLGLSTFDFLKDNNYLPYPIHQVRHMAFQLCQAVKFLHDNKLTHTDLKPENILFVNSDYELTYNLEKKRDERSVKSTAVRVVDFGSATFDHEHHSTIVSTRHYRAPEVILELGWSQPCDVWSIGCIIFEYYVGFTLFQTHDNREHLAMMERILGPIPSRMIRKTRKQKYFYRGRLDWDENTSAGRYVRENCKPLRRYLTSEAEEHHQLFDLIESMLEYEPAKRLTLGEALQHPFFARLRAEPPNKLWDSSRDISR

SMILES: COC(=N)c1nc2ccc3ncnc(Nc4ccc(OC)cc4F)c3c2s1
- IC50 [1]: 143 nM
- IC50 [2]: 32.5 nM
- ΔTm [3]: 5 °C
- IC50 [4]: 11 nM
- IC50 [5]: 9.11 nM
- IC50 [6]: 3.16 nM
- IC50 [7]: 32 nM
- ΔTm [8]: 5 °C
- IC50 [9]: 1420 nM
- ΔTm [10]: 9 °C
- IC50 [11]: 21.1 nM
- ΔTm [12]: 5 °C
- IC50 ([13]; read-out: IC50): 1570 nM

SMILES: COC(=N)c1nc2ccc3ncnc(Nc4ccc(Cl)cc4Cl)c3c2s1
- IC50 [1]: 221 nM
- IC50 [2]: 88.8 nM
- ΔTm [3]: 5 °C
- IC50 [4]: 22.8 nM
- IC50 [5]: 7.44 nM
- IC50 [6]: 10.8 nM
- IC50 [7]: 59 nM
- ΔTm [8]: 5 °C
- IC50 [9]: > 10000 nM
- ΔTm [10]: 9 °C
- IC50 [11]: 93.2 nM
- ΔTm [12]: 5 °C
- IC50 [13]: Not Active
